Measurements: patent publication US6544989B2, “Benzazoles: benzoxazole, benzthiazole and benzimidazole derivatives” (Syngenta Limited, priority 1998, dated 2003)

Legend:
Musca domestica = conditions: 500 ppm by weight; knockdown assessed 15 minutes after treatment
Puccinia recondita = test: Fungicidal test, Puccinia recondita (PUCCRT) on wheat, PRCO; format: in vivo; conditions: METHOD 2 (unbanded)
Plasmopara viticola = test: Fungicidal test, Plasmopara viticola (PLASVI) on vines, PRCO; format: in vivo; conditions: METHOD 2 (unbanded)
Pyricularia oryzae = format: in vivo; conditions: METHOD 2 (unbanded)
Uncinula necator = test: Fungicidal test, Uncinula necator (UNCINE) on vines, PRCO; format: in vivo; conditions: METHOD 2 (unbanded)
[1] = test system: Erysiphe graminis f.sp. tritici; test: Fungicidal test, Erysiphe graminis f.sp. tritici (ERYSGT) on wheat, PRCO; format: in vivo; conditions: 1 d Prot/Foir; METHOD 2 (unbanded)
Meloidogyne incognita = test: Nematode test, J2 infective juveniles of Meloidogyne incognita, mortality; conditions: 12.5 ppm; J2 infective juveniles suspended in solution; mortality after three days
Venturia inaequalis = test: Fungicidal test, Venturia inaequalis (VENTIN) on apples, PRCO; format: in vivo; conditions: METHOD 2 (unbanded)
[2] = test system: Phytophthora infestans lycopersici; format: in vivo; conditions: METHOD 2 (unbanded)
Rhizoctonia solani = test: Fungicidal test, Rhizoctonia solani (RHIZSO) on rice, PRCO; format: in vivo; conditions: METHOD 2 (unbanded)
Septoria nodorum = test: Fungicidal test, Septoria nodorum (LEPTNO) on wheat, PRCO; format: in vivo; conditions: METHOD 2 (unbanded)

Row | SMILES | MUSCDO AC = Musca domestica (knockdown), score (Musca domestica) | PUCCRT 1 d Prot/Foir PRCO (Puccinia recondita) | PLASVI 1 d Prot/Foir PRCO (Plasmopara viticola) | PYRIOR 1 d Prot/Foir PRCO (Pyricularia oryzae) | UNCINE 1 d Prot/Foir PRCO (Uncinula necator) | ERYSGT 1 d Prot/Foir PRCO [1] | MELGIN = Meloidogyne incognita, grading of mortality (score) (Meloidogyne incognita) | VENTIN 1 d Prot/Foir PRCO (Venturia inaequalis) | PHYTIN 1 d Prot/Foir PRCO [2] | RHIZSO 1 d Prot/Foir PRCO (Rhizoctonia solani) | LEPTNO 1 d Prot/Foir PRCO (Septoria nodorum)
1 | Cc1nsc(NC(=O)Cc2ccc3ocnc3c2)c1Cl [1(A3)] | 0 (0 indicates less than 40% mortality) | 59 | 6 | 91 | 43 | 88 | 5 (5 indicates 40-79% mortality) | 25 | 100 | – | –
2 | Cc1nc2cc(CC(=O)Nc3snc(C)c3Cl)ccc2s1 [2(A13)] | 0 (0 indicates less than 40% mortality) | 99 | – | 47 | 72 | 31 | 5 (5 indicates 40-79% mortality) | – | 100 | 43 | 62
3 | CCCCc1nc2cc(CC(=O)Nc3snc(C)c3Cl)ccc2o1 [5(A3)] | 0 (0 indicates less than 40% mortality) | 88 | 39 | 31 | 72 | 40 | 0 (0 indicates less than 40% mortality) | −10 | 100 | – | 30
4 | CCN(C(=O)Cc1ccc2oc(CC(C)(C)C)nc2c1)c1snc(C)c1Cl [15(C3)] | 9 (9 indicates 80-100% mortality) | 13 | – | 7 | 100 | 38 | 0 (0 indicates less than 40% mortality) | 64 | 97 | – | 93
5 | CCCN(C(=O)Cc1ccc2oc(CC(C)(C)C)nc2c1)c1snc(C)c1Cl [15(D3)] | 0 (0 indicates less than 40% mortality) | 25 | – | 27 | 100 | 55 | 0 (0 indicates less than 40% mortality) | −14 | 99 | – | 70
6 | CCOCN(C(=O)Cc1ccc2oc(CC(C)(C)C)nc2c1)c1snc(C)c1Cl [15(L3)] | 9 (9 indicates 80-100% mortality) | 17 | – | 20 | 99 | 100 | 0 (0 indicates less than 40% mortality) | −21 | 97 | – | 40
7 | Cc1nsc(N(C(=O)Cc2ccc3oc(CC(C)(C)C)nc3c2)C(C)C)c1Cl [15(N3)] | 0 (0 indicates less than 40% mortality) | 3 | – | 13 | 87 | 8 | 0 (0 indicates less than 40% mortality) | 3 | 3 | – | −2
8 | Cc1nsc(NC(=O)Cc2ccc3oc(C4CCCC4)nc3c2)c1Cl [28(A3)] | 5 (5 indicates 40-79% mortality) | 86 | 0 | 81 | 9 | 46 | 0 (0 indicates less than 40% mortality) | 53 | 100 | – | 20
9 | Cc1nsc(NC(=O)Cc2ccc3oc(CC4CC4)nc3c2)c1Cl [41(A3)] | 0 (0 indicates less than 40% mortality) | 98 | – | 33 | 91 | 59 | 0 (0 indicates less than 40% mortality) | 50 | 100 | – | 77
10 | Cc1nsc(NC(=O)Cc2ccc3oc(CF)nc3c2)c1Cl [73(A3)] | 0 (0 indicates less than 40% mortality) | 100 | – | 100 | 93 | 93 | 0 (0 indicates less than 40% mortality) | – | 100 | 0 | 57
11 | Cc1nsc(NC(=O)Cc2ccc3oc(C(F)(F)C(F)(F)C(F)(F)F)nc3c2)c1Cl [80(A3)] | 0 (0 indicates less than 40% mortality) | 100 | – | 91 | 100 | 99 | 0 (0 indicates less than 40% mortality) | −8 | 45 | – | −2
12 | Cc1nsc(NC(=O)Cc2ccc3oc(C(C)(C)CCl)nc3c2)c1Cl [98(A3)] | 5 (5 indicates 40-79% mortality) | 98 | 99 | 81 | 100 | 98 | 0 (0 indicates less than 40% mortality) | 96 | 100 | – | 30
13 | Cc1nsc(NC(=O)Cc2ccc3oc(CC#N)nc3c2)c1Cl [113(A3)] | 0 (0 indicates less than 40% mortality) | 41 | – | 28 | 21 | 5 | 0 (0 indicates less than 40% mortality) | 8 | 38 | – | 20
14 | CSCCc1nc2cc(CC(=O)Nc3snc(C)c3Cl)ccc2o1 [172(A3)] | 5 (5 indicates 40-79% mortality) | 96 | 44 | 19 | 36 | 40 | 5 (5 indicates 40-79% mortality) | 69 | 100 | – | 10
15 | Cc1nsc(NC(=O)Cc2ccc3oc(NC(C)(C)C)nc3c2)c1Cl [183(A3)] | 0 (0 indicates less than 40% mortality) | 99 | – | 99 | 98 | 99 | 0 (0 indicates less than 40% mortality) | 98 | 100 | – | 19
16 | Cc1nsc(NC(=O)Cc2ccc3oc(N4CCOCC4)nc3c2)c1Cl [191(A3)] | 5 (5 indicates 40-79% mortality) | 99 | – | 92 | 100 | 94 | 9 (9 indicates 80-100% mortality) | 10 | 92 | – | 36
17 | COc1nc2cc(CC(=O)Nc3snc(C)c3Cl)ccc2o1 [203(A3)] | 9 (9 indicates 80-100% mortality) | 100 | – | 96 | 69 | 98 | 0 (0 indicates less than 40% mortality) | 65 | 85 | – | −3
18 | CCOc1nc2cc(CC(=O)Nc3snc(C)c3Cl)ccc2o1 [204(A3)] | 9 (9 indicates 80-100% mortality) | 99 | – | 96 | 81 | 87 | 0 (0 indicates less than 40% mortality) | 22 | 100 | – | 67
19 | COC(=O)CSc1nc2cc(CC(=O)Nc3snc(C)c3Cl)ccc2o1 [229(A3)] | 0 (0 indicates less than 40% mortality) | 6 | – | 55 | −9 | 21 | 0 (0 indicates less than 40% mortality) | 10 | 92 | – | 2
20 | Cc1nsc(NC(=O)Cc2ccc3oc(-c4sccc4Cl)nc3c2)c1Cl [331(A3)] | 0 (0 indicates less than 40% mortality) | 95 | 49 | 81 | 76 | 33 | – | 5 | – | – | 17
